Experimental data taken from PubChem BioAssay AID1208 (EPA DSSTox, 2008).
Values joined by “and” are separate entries in the source; they are usually repeats but may differ in a detail not shown here. Equal entries are not always repeated. Active and inactive are the calls of the source.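 Rule for the calls: active = at least one rat sex group has a carcinogenic potency value and tumor site recorded; inconclusive = only rat studies were judged inadequate by the national testing program; inactive = no potency or tumor site, with negative rat experiments.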

Test system: rat chronic carcinogenicity bioassay, TD50
Test: DSSTox (CPDBAS) Carcinogenic Potency Database Summary Rat Bioassay Results
Settings: for Potency: active compounds read low; for outcome: TD50_Rat_Note: no positive results
Text: The Carcinogenic Potency Database (CPDB) is a unique and widely used international resource of the results of over 6500 chronic, long-term animal cancer tests on over 1500 chemical substances. The CPDB provides easy access to the bioassay literature, with qualitative and quantitative analyses of both positive and negative experiments that have been published over the past 50 years in the general literature and by the National Cancer Institute/National Toxicology Program. The CPDB standardizes the diverse literature of cancer bioassays that vary widely in protocol, histopathological examination and nomenclature, and in the published author's choices of what information to provide in their papers. Results are reported in the CPDB for tests in rats, mice, hamsters, dogs, and nonhuman primates, and are based on the most positive result among all experiments for each sex-species. The DSSTox CPDBAS (all species) file incorporates data from the CPDB Summary Tables for the full list of over 1500 chemical substances tested in at least one species. Summary bioassay results for Rat (TD50, tumor sites, male, female, both sexes) are provided in the CPDB Summary Tables and the DSSTox CPDBAS file for over 1200 chemical substances.
TD50 is a standardized quantitative measure of carcinogenic potency (analogous to an LD50) and is reported in the CPDB Summary Table for each species. Activity Score for actives is computed by mapping of LOG10 (1/TD50_Rat_mmol) activity values spanning range [MIN, MAX] onto Integer 1-100 Activity Score range, where 100 is highest potency and 1 is lowest: Activity Score = 100 * INTEGER[(log10(1/Activity) - MIN)/(MAX - MIN)]. If activity is reported but no TD50_Rat_mmol value is computed, such as for a mixture, the Activity Score is assigned the activity value "50". […] Target sites are reported for each sex-species group with a positive result in the CPDB on the basis of a positive author's opinion for the particular site, using all results from both the general literature and NCI/NTP bioassays. If a chemical has two or more target sites listed, the results may be from different experiments, and a single site may be a target organ in more than one experiment, as well. Blank entry in TargetSites field indicates no results reported.

[1] = TargetSites_Rat_Female: no positive results
[2] = TD50_Rat_Note: TD50 is harmonic mean of more than one positive test, harmonic mean of TD50 includes a value for upper 99% confidence li
[3] = TD50_Rat_Note: TD50 is harmonic mean of more than one positive test, TargetSites_Rat_Female: liver

With CN(N=O)C(=O)NCCC[C@H](N)C(=O)O the Potency (TD50_Rat_Note: positive test results only by intraperitoneal or intravenous injection, TD50 is harmonic mean of more than one positive, TargetSites_Rat_Female: kidney, mammary gland, pancreas, skin) was 0.787 mg/kg/day.
For O=C1C=C2C(=CCOC2O)O1 (centres undefined), the outcome [1] was “inactive”.
Work on Cc1cc(C)c(S(=O)(=O)O)cc1N=Nc1cc(S(=O)(=O)O)c2ccccc2c1O yielded a Potency (TD50_Rat_Note: TD50 is harmonic mean of more than one positive test, TargetSites_Rat_BothSexes: hematopoietic system) of 8110 mg/kg/day.
CCSCCC(N)C(=O)O (centres undefined) gave a Potency [2] of 9.76 mg/kg/day.
With O=[As](O)(O)O the outcome (TargetSites_Rat_BothSexes: no positive results) was “inactive”.
In the case of C=CCOc1ccc(CC(=O)O)cc1Cl, the outcome [1] is reported as “inactive; no positive results”.
With CC(=O)Nc1ccc(-c2ccccc2)cc1O the outcome [1] was “inactive”.
Work on ClCC(Br)CBr (centres undefined) yielded a Potency (TD50_Rat_Note: TD50 is harmonic mean of more than one positive test, TargetSites_Rat_Female: adrenal gland, mammary gland, nasal cavity, oral cavity, stomach) of 0.259 mg/kg/day.
For Cn1c(=O)c2c(ncn2C)n(C)c1=O, the outcome [1] was “inactive; no positive results”.
In the case of NCCNc1cccc2ccccc12, the outcome [1] is reported as “inactive; no positive results”.
Molecule CCCCC(CC)COC(=O)c1ccccc1C(=O)OCC(CC)CCCC (centres undefined) has a Potency [3] of 716 mg/kg/day.
With O=C(O)CN(CC(=O)O)CC(=O)O the Potency (TD50_Rat_Note: TD50 is harmonic mean of more than one positive test, TargetSites_Rat_Female: kidney, urinary bladder) was 1770 mg/kg/day and 370 mg/kg/day.
With O=Cc1ccccc1 the outcome [1] was “inactive; no positive results”.
CNC(=O)CSP(=S)(OC)OC was tested, and the outcome [1] was “inactive; no positive results”.
For Cc1noc(NS(=O)(=O)c2ccc(N)cc2)c1C, the outcome [1] was “inactive; no positive results”.
Molecule c1ccc2c(c1)cc1ccc3cccc4ccc2c1c34 has a Potency (TargetSites_Rat_BothSexes: stomach) of 0.956 mg/kg/day.
With Nc1cc([N+](=O)[O-])ccc1C(=O)O the outcome [1] was “inactive; no positive results”.
Molecule CCCCN(CCCCO)N=O has a Potency (TD50_Rat_Note: TD50 is harmonic mean of more than one positive test, harmonic mean of TD50 includes a value for upper 99% confidence li, TargetSites_Rat_Female: urinary bladder) of 0.457 mg/kg/day.
NNc1nc(-c2ccc([N+](=O)[O-])o2)cs1 gave a Potency (TD50_Rat_Note: TD50 is harmonic mean of more than one positive test, TargetSites_Rat_Female: kidney, mammary gland) of 3.19 mg/kg/day.
Work on COc1cccc2c1cc([N+](=O)[O-])c1c(C(=O)O)cc3c(c12)OCO3 yielded a Potency (TD50_Rat_Note: TD50 is harmonic mean of more than one positive test, TD50_Rat_mmol was not calculated for this mixture, but Activiity S, TargetSites_Rat_Female: stomach) of 0.0141 mg/kg/day.
Work on Cc1ccc(C)c(N)c1 yielded a Potency of 152 mg/kg/day.
For O=C1OC(C(O)CO)C(O)=C1O (centres undefined), the outcome was “inactive; no positive results”.
In the case of Cc1cc(N)ccc1N, the outcome [1] is reported as “inactive; no positive results”.
In the case of CC(=O)O[C@H]1CC[C@@]2(C)C(=CC[C@@H]3[C@@H]2CC[C@]2(C)C(=O)CC[C@@H]32)C1, the Potency [3] is reported as 49.6 mg/kg/day.
With CN(C)[C@@H]1C(=O)C(C(N)=O)=C(O)[C@@]2(O)C(=O)C3=C(O)c4c(O)cccc4[C@@](C)(O)[C@H]3[C@H](O)[C@@H]12 the outcome [1] was “inactive; no positive results”.
Work on CCN(CC)C(C)=O yielded a Potency (TD50_Rat_Note: no positive results are statistically significant) of 8.85 mg/kg/day.
Nc1ncc([N+](=O)[O-])s1 showed a Potency (TargetSites_Rat_Female: kidney, lung, mammary gland) of 44.6 mg/kg/day.
In the case of Cc1nnc2n1-c1sc(CCc3ccc(CC(C)C)cc3)cc1C(c1ccccc1Cl)=NC2C (centres undefined), the outcome [1] is reported as “inactive; no positive results”.
CC(=O)N(O)c1ccc2c(c1)Cc1ccccc1-2 showed a Potency [3] of 0.988 mg/kg/day.
For ClC1=C(Cl)[C@]2(Cl)[C@@H]3[C@H]4C=CC(C4)[C@@H]3C1(Cl)C2(Cl)Cl, the outcome [1] was “inactive; no positive results”.
O=[N+]([O-])c1ccc(Nc2ccc(Nc3ccccc3)c(S(=O)(=O)O)c2)c([N+](=O)[O-])c1 gave a Potency (TargetSites_Rat_Female: kidney) of 1710 mg/kg/day.
With CCC(Br)(CC)C(=O)NC(N)=O the outcome [1] was “inactive; no positive results”.
With CCCN(CCC)N=O the Potency (TargetSites_Rat_Female: esophagus, liver, nasal cavity) was 0.186 mg/kg/day.
In the case of Brc1c(Br)c(Br)c(Oc2c(Br)c(Br)c(Br)c(Br)c2Br)c(Br)c1Br, the Potency [3] is reported as 3340 mg/kg/day and the outcome [1] is reported as “inactive; no positive results”.
With Nc1ccc([N+](=O)[O-])cc1O the Potency [1] was 111 mg/kg/day.
For O=C(N[C@H](CO)[C@H](O)c1ccc([N+](=O)[O-])cc1)C(Cl)Cl, the outcome [1] was “inactive”.
In the case of CCCCCC(N)=O, the outcome [1] is reported as “inactive; no positive results”.
In the case of CCOc1nc2cccc(C(=O)OC(C)OC(=O)OC3CCCCC3)c2n1Cc1ccc(-c2ccccc2-c2nn[nH]n2)cc1 (centres undefined), the outcome [1] is reported as “inactive; no positive results”.
For CC[N+](=O)[O-], the outcome [1] was “inactive; no positive results”.
With CCN(CC)CCOc1ccc(C(O)(Cc2ccc(OC)cc2)c2ccccc2)cc1 (centres undefined) the outcome [1] was “inactive”.
CN(C)C=O was tested, and the outcome [1] was “inactive; no positive results”.
Molecule CN(CCCC(=O)O)N=O has a Potency of 0.982 mg/kg/day.
Molecule COC(N)=O has a Potency (TD50_Rat_Note: TD50 is harmonic mean of more than one positive test, greater than ten-fold variation among TD50 values for positive res, TargetSites_Rat_Female: liver) of 56.6 mg/kg/day.
Molecule c1ccc2occc2c1 has a Potency (TargetSites_Rat_Female: kidney) of 424 mg/kg/day.
O=NN1CCNCC1 gave a Potency (TD50_Rat_Note: TD50 is harmonic mean of more than one positive test, no positive results are statistically significant, TargetSites_Rat_Female: all tumor bearing animals) of 8.78 mg/kg/day.
For O=[N+]([O-])c1ccc(Cl)c([N+](=O)[O-])c1, the outcome was “inactive; no positive results”.
O=NN1CCOC1=O showed a Potency [2] of 0.385 mg/kg/day.
C=CCc1ccc(O)c(OC)c1 was tested, and the outcome [1] was “inactive; no positive results”.
Work on ClCOCCl yielded a Potency of 0.00357 mg/kg/day.
For NCCCCCC(=O)O, the outcome was “inactive; no positive results”.
Work on Cn1cc[nH]c1=S yielded a Potency (TD50_Rat_Note: TD50 is harmonic mean of more than one positive test, TargetSites_Rat_Female: thyroid gland) of 1.14 mg/kg/day.
In the case of CCCCCCCCCCC(C)c1ccc(S(=O)(=O)O)cc1 (centres undefined), the outcome [1] is reported as “inactive; no positive results”.
Molecule Nc1cc(S(=O)(=O)O)cc2cc(S(=O)(=O)O)c(N=Nc3ccc(-c4ccc(N=Nc5c(S(=O)(=O)O)cc6cc(S(=O)(=O)O)cc(N)c6c5O)cc4)cc3)c(O)c12 has a Potency [3] of 1.73 mg/kg/day.
O.O.O.O.O.O.O.O=S(=O)([O-])[O-].[Co+2] showed a Potency (TD50_Rat_Note: TD50 is harmonic mean of more than one positive test, TargetSites_Rat_Female: adrenal gland, lung) of 0.137 mg/kg/day.
In the case of Nc1ccc(N)cc1, the outcome [1] is reported as “inactive; no positive results”.
c1ccc(N=Nc2ccccc2)cc1 showed a Potency (TD50_Rat_Note: TD50 is harmonic mean of more than one positive test, TargetSites_Rat_Female: spleen) of 24.1 mg/kg/day.
For O=C(C1CCCCC1)N1CC(=O)N2CCc3ccccc3C2C1 (centres undefined), the outcome [1] was “inactive; no positive results”.
CCCCCCCCCCCCCCCC(=O)OC/C=C(C)/C=C/C=C(C)/C=C/C1=C(C)CCCC1(C)C was tested, and the outcome was “inactive; no positive results”.
In the case of CC(C)(CO)CCCCCCC(C)(C)CO, the outcome [1] is reported as “inactive; no positive results”.
For C=CC(=O)NCO, the outcome [1] was “inactive; no positive results”.
Molecule CN(CCCC(=O)c1cccnc1)N=O has a Potency (TD50_Rat_Note: TD50 is harmonic mean of more than one positive test) of 0.0999 mg/kg/day.
For Nc1ccc(O)c(N)c1, the outcome [1] was “inactive; no positive results”.
With C=CC=O the outcome [1] was “inactive; no positive results”.
With Nc1ccccc1 the Potency (TD50_Rat_Note: TD50 is harmonic mean of more than one positive test, greater than ten-fold variation among TD50 values for positive res, TargetSites_Rat_Female: peritoneal cavity) was 269 mg/kg/day and the outcome was “inactive; no positive results”.
Clc1ccc(C(c2ccc(Cl)cc2)C(Cl)(Cl)Cl)cc1 showed a Potency [3] of 84.7 mg/kg/day.
In the case of CC(=O)CN(N=O)C(=O)NCCCl, the outcome [1] is reported as “inactive; no positive results”.
For CC/C(C)=N/O, the Potency [1] was 74.5 mg/kg/day.
Molecule CN(CCCO)N=O has a Potency (TD50_Rat_Note: TD50 is harmonic mean of more than one positive test, TargetSites_Rat_Female: liver, lung) of 1.66 mg/kg/day.
C1C2OC2C2C1C1CC2C2OC12 (centres undefined) was tested, and the outcome was “inactive; no positive results”.
CO[C@H]1/C=C/O[C@@]2(C)Oc3c(C)c(O)c4c(O)c(c(/C=N/N5CCN(C)CC5)c(O)c4c3C2=O)NC(=O)/C(C)=C\C=C\[C@H](C)[C@H](O)[C@@H](C)[C@@H](O)[C@@H](C)[C@H](OC(C)=O)[C@@H]1C was tested, and the outcome [1] was “inactive; no positive results”.
For CCO, the Potency [1] was 9110 mg/kg/day.
Clc1nc(Cl)nc(Nc2ccccc2Cl)n1 was tested, and the outcome [1] was “inactive; no positive results”.
In the case of O=[N+]([O-])c1ccc2c3c(cccc13)CC2, the Potency (TD50_Rat_Note: TD50 is harmonic mean of more than one positive test, TargetSites_Rat_Female: clitoral gland, ear Zymbals gland, lung, mammary gland) is reported as 8.67 mg/kg/day.
For Cc1ccc(Cc2cnc(NCCSCc3ccc(CN(C)C)o3)[nH]c2=O)cn1, the Potency (TD50_Rat_Note: TD50 is harmonic mean of more than one positive test, TargetSites_Rat_Female: stomach) was 3360 mg/kg/day.
For CN1[C@@H]2CC(OC(=O)[C@@H](CO)c3ccccc3)C[C@H]1[C@@H]1O[C@@H]12 (some centres undefined), the outcome [1] was “inactive; no positive results”.
C=C/C=N/O was tested, and the outcome [1] was “inactive; no positive results”.
With N#[N+]c1cc(CCN)ccc1[O-] the Potency was 37.6 mg/kg/day.
